Measurements reported in ChEMBL document CHEMBL3792348, “Design, synthesis and structure activity relationship of potent pan-PIM kinase inhibitors derived from the pyridyl carboxamide scaffold” (Bioorg Med Chem Lett, 2016).

How the values were obtained:
[1] = biological target: Serine/threonine-protein kinase pim-2 (Homo sapiens, UniProt Q9P1W9)
Description: Inhibition of Pim2 (unknown origin) using BAD peptide preincubated for 15 mins followed by ATP addition measured after 60 to 100 mins by Kinase-Glo reagent based luminescence assay

[2] = biological target: Serine/threonine-protein kinase pim-1 (Homo sapiens, UniProt P11309); test: Inhibition of Pim1 (unknown origin) using BAD peptide preincubated for 15 mins followed by ATP addition measured after 60 to 100 mins by Kinase-Glo reagent based luminescence assay
Serine/threonine-protein kinase pim-1, sequence (P11309 whole entry): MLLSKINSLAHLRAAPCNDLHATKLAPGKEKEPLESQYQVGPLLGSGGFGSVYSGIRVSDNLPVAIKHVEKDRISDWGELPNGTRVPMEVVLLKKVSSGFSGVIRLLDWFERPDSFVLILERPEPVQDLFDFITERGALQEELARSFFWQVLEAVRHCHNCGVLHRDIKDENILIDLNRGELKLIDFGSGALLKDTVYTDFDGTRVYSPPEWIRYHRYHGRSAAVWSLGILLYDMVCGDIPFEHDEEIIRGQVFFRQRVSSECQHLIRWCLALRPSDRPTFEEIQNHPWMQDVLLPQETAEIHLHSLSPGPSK

[3] = Hepatic extraction ratio in rat liver microsomes at 1 uM incubated for 30 mins by semi-quantitative LC-MS/MS analysis; format: ADME; conditions: read-out: ERH
[4] = biological target: Serine/threonine-protein kinase pim-3 (Homo sapiens, UniProt Q86V86); test: Inhibition of Pim3 (unknown origin) using BAD peptide preincubated for 15 mins followed by ATP addition measured after 60 to 100 mins by Kinase-Glo reagent based luminescence assay
[5] = Hepatic extraction ratio in human liver microsomes at 1 uM incubated for 30 mins by semi-quantitative LC-MS/MS analysis; format: ADME; conditions: read-out: ERH
[6] = Lipophilicity, logD of the compound; format: physicochemical; conditions: octanol/water

Serine/threonine-protein kinase pim-2, sequence (Q9P1W9 whole entry): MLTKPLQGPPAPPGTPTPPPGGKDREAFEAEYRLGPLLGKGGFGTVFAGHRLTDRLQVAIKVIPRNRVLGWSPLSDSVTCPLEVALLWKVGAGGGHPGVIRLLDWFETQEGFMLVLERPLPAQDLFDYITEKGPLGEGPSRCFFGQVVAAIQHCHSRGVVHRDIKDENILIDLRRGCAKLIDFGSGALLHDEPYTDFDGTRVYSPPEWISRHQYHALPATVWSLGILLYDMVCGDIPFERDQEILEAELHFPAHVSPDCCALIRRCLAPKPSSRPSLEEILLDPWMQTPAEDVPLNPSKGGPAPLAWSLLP

SMILES | Ki [1] | Ki [2] | hepatic extraction ratio at 0.5 h, 1 µM [3] | Ki [4] | hepatic extraction ratio at 0.5 h, 1 µM [5] | logD [6]
CC(=O)Nc1nc(C(=O)Nc2ccccc2N2CCCCC2)cs1 | > 12500 nM | 90 nM | – | – | – | –
Nc1cc(-c2ccncc2NC(=O)c2nc(-c3c(F)cccc3F)ccc2N)nc(C(F)(F)F)n1 | < 3 nM | < 1 nM | 0.91 | < 3 nM | 0.77 | 4.3
Nc1cc(-c2ccncc2NC(=O)c2nc(-c3ccccc3F)ccc2N)ccn1 | 35 nM | < 1 nM | – | 3 nM | – | –
Nc1cncc(-c2ccncc2NC(=O)c2nc(-c3ccccc3F)ccc2N)n1 | 94 nM | 3 nM | – | 6 nM | – | –
Nc1ccc(-c2c(F)cccc2F)nc1C(=O)Nc1cnccc1-c1cccnc1N | 187 nM | 28 nM | – | 36 nM | – | –
Nc1cc(-c2ccncc2NC(=O)c2nc(-c3nccs3)ccc2N)nc(C(F)(F)F)n1 | < 3 nM | < 1 nM | 0.89 | < 3 nM | 0.87 | –
Cc1cc(-c2ccncc2NC(=O)c2nc(-c3ccccc3F)ccc2N)cc(N)n1 | 4 nM | < 1 nM | 0.95 | < 3 nM | 0.95 | –
Nc1cc(-c2ccncc2NC(=O)c2nc(-c3ccccc3F)ccc2N)nc(N)n1 | 120 nM | 17 nM | – | 15 nM | – | –
Cc1cc(-c2ccncc2NC(=O)c2nc(-c3nccs3)ccc2N)nc(N)n1 | 9 nM | < 1 nM | 0.81 | < 3 nM | 0.64 | –
Cc1cc(-c2ccncc2NC(=O)c2nc(-c3ccccc3F)ccc2N)nc(N)n1 | < 3 nM | < 1 nM | 0.8 | < 3 nM | 0.58 | –
Cc1cc(-c2ccncc2NC(=O)c2nc(-c3c(F)cccc3F)ccc2N)cc(N)n1 | < 3 nM | < 1 nM | 0.94 | < 3 nM | 0.96 | –
Nc1cc(-c2ccncc2NC(=O)c2nc(-c3c(F)cccc3F)ccc2N)ncn1 | 27 nM | 4 nM | – | 5 nM | – | –
Nc1nccc(-c2ccncc2NC(=O)c2nc(-c3c(F)cccc3F)ccc2N)n1 | 50 nM | 6 nM | – | 5 nM | – | –
Nc1ccc(-c2ccccc2F)nc1C(=O)Nc1cnccc1-c1ccncc1 | 317 nM | 8 nM | – | 21 nM | – | –
Nc1ccc(-c2ccncc2NC(=O)c2nc(-c3ccccc3F)ccc2N)cn1 | 158 nM | 4 nM | – | 12 nM | – | –
Nc1cc(-c2ccncc2NC(=O)c2nc(-c3c(F)cccc3F)ccc2N)ccn1 | 8 nM | 2 nM | – | < 3 nM | – | –
Cc1nc(N)cc(-c2ccncc2NC(=O)c2nc(-c3c(F)cccc3F)ccc2N)n1 | < 3 nM | < 1 nM | 0.82 | < 3 nM | 0.82 | –
COc1cc(-c2ccncc2NC(=O)c2nc(-c3c(F)cccc3F)ccc2N)cc(N)n1 | 4 nM | < 1 nM | – | < 3 nM | – | –
